According to patent publication US6376517B1, “Pipecolic acid derivatives for vision and memory disorders” (GPI NIL Holdings, Inc., priority 1998, dated 2002):

What was measured:
[1] = tested on: retinal ganglion cell axons; assay: Protection of retinal ganglion cell axons from degeneration following optic nerve transection (Table E); type: in vivo, rat; settings: 14 days after optic nerve transection; ± SEM
Text: Efficacy of representative compounds from different immunophilin ligand series in protecting retinal ganglion cell axons from degeneration following optic nerve transection is set forth in Table E.

[2] = Clearance (Table E comments); type: in vitro ADME
[3] = Morris watermaze spatial learning and memory in aged rodents (Example 15); type: in vivo, C57BL/6N-Nia mice; settings: aged impaired mice, 10 mg/kg daily, retention testing after 3 weeks of dosing
Text: The Morris watermaze is widely used for assessing spatial memory formation and retention in experimental animals. The test depends on the animal's ability to utilize spatial visual information in order to locate a submerged escape platform in a water tank. It is important that the tank itself be as devoid of specific visual features as possible—thus, it is always circular in shape, the sides are kept smooth and in uniform dull colors, and the water is rendered opaque with nontoxic watercolor pigment or powdered milk. This is to ensure that the animal navigates only by the use of more distant visual cues, or by the use of intra-maze cues specifically provided by the experimenter. The animals' path, speed, and swim time are tracked with a ceiling camera for later computerized analysis. Over the course of several successive trials, spatial learning can therefore be defined as a drop of distance swum, or time elapsed, from placement in the tank until escape onto the invisible platform. The procedure involved using three-month old (young) and 18-19 month old male C57BL/6N-Nia (aged) mice which habituated to the well known and conventional Morris watermaze during a 4 trials/day, 3-4 day visible platform training phase. […] Swim Distances (cm) were analyzed in a 7×5 ANOVA including Groups and Blocks (1-5) as factors in the analysis, treating Blocks as a repeated measure.

retinal ganglion cells = assay: Optic nerve transection, 28 days treatment, sacrifice at 90 days (Example 13); type: in vivo, Sprague Dawley rats; settings: 10 mg/kg/day s.c. for 28 days, 90 days after transection
Text: Transection of the mammalian optic nerve results in a brief period of abortive regeneration, but the majority of axotomized neurons die and the axons from many persisting ganglion cells die back beyond the optic nerve head.

[4] = tested on: retinal ganglion cells, optic nerve axons and myelin; assay: Retinal ischemia (intraocular pressure above arterial blood pressure), examined 28 days later; type: in vivo, adult rats
Text: Retinal ganglion cells were retrogradely labeled in adult rats by bilateral injection of fluorogold in their lateral geniculate nuclei. Labeled ganglion cells in the normal rat retina appear as white profiles against the dark background (FIG. 1A). Complete retinal ischemia was produced by infusing normal saline solution into the retinal vitreous cavity of each eye until the intraocular pressure exceeded arterial blood pressure. 28 days after the ischemic episode extensive degeneration of retinal ganglion cell was evidenced by massive reduction in the density of fluorogold labeled cells (FIG. 1B).

[5] = tested on: retinal ganglion cells and optic nerve axons; assay: Optic nerve transection vision loss model, 14 or 28 day treatment, sacrifice at 90 days (Example 2, Table A); type: in vivo, Sprague Dawley rats; settings: for Proximal optic nerve myclin basic protein Density, % recovery: ± SEM, % areal coverage of optic nerve cross section
Text: All eyes and optic nerves stumps were removed.

FKBP12 = FKBP12 (Homo sapiens, UniProt P62942); assay: Ki Test Procedure: inhibition of peptidyl-prolyl isomerase (rotamase) activity, chymotrypsin-coupled assay; type: biochemical; settings: Table E comments
Sequence of FKBP12 (P62942 whole entry, species assumed): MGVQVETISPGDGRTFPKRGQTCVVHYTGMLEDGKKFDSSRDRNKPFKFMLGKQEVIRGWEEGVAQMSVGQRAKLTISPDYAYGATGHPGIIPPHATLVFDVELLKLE
Procedure: The inhibition of the prolyl peptidyl cis-trans isomerase activity of FKBP may be measured as an indicator of this affinity.
The cis-trans isomerization of an alanine-proline bond in a model substrate, N-succinyl-Ala-Ala-Pro-Phe-p-nitroanilide, is monitored spectrophotometrically in a chymotrypsin-coupled assay, which releases para-nitroanilide from the trans form of the substrate. The inhibition of this reaction caused by the addition of different concentrations of inhibitor is determined, and the data is analyzed as a change in first-order rate constant as a function of inhibitor concentration to yield the apparent Ki values.
In a plastic cuvette are added 950 mL of ice cold assay buffer (25 mM HEPES, pH 7.8, 100 mM NaCl), 10 mL of FKBP (2.5 mM in 10 mM Tris-Cl pH 7.5, 100 mM NaCl, 1 mM dithiothreitol), 25 mL of chymotrypsin (50 mg/ml in 1 mM HCl) and 10 mL of test compound at various concentrations in dimethyl sulfoxide. The reaction is initiated by the addition of 5 mL of substrate (succinyl-Ala-Phe-Pro-Phe-para-nitroanilide, 5 mg/mL in 2.35 mM LiCl in trifluoroethanol).
The absorbance at 390 nm versus time is monitored for 90 seconds using a spectrophotometer and the rate constants are determined from the absorbance versus time data files.

**Q.** With `O=C(SCCCc1ccccc1)[C@@H]1CCCN1C(=O)NC12CC3CC(CC(C3)C1)C2` [B] as the compound, how does the “RT97 + RGC axon density 14 days after On transection (% ON axons rescued)” value [1] read?
**A.** 100.0% ± 5.2% SEM

**Q.** With `CCC(C)(C)C(=O)C(=O)N1CCCCC1C(=O)OC(CCc1ccccc1)CCc1ccccc1` (centres unmarked) [E] as the compound, how does the Clearance [2] read?
**A.** 41.8 µL/min

**Q.** With `CCC(C)(C)C(=O)C(=O)N1CCC[C@H]1C(=O)OCCCc1cccnc1` [GPI 1046] as the compound, how does the “spatial memory performance (Morris watermaze retention, swim distance)” value [3] read?
**A.** significantly enhanced spatial memory performance

**Q.** What about the “ganglion cell population spared” value (retinal ganglion cells) of the same compound?
**A.** 25%

**Q.** And the “preservation of axons in the proximal stump of the transected nerve” value (retinal ganglion cells; RT97 neurofilament)?
**A.** preserved the axons of virtually all protected neurons

**Q.** What about the “protection of retinal ganglion cells (fluorogold labeled) after retinal ischemia” value ([4]; 10 mg/kg s.c. 1 hour prior to ischemia and 10 mg/kg/day for the next four days, 28 days after ischemia) of the same compound?
**A.** noticeable protection of a large proportion of the vulnerable ganglion cell population

**Q.** And the “density of degenerating myelin figures after retinal ischemia” value ([4]; 28 days after 1 hour retinal ischemic episode)?
**A.** dramatically decreased the density of degenerating myelin figures

**Q.** What about the “protection of optic nerve axons after retinal ischemia” value ([4]; 28 days after 1 hour retinal ischemic episode, toluidine blue staining) of the same compound?
**A.** protected the majority of optic nerve axons from degeneration

**Q.** And the “RGC Counts” value ([5]; 14 days treatment, 10 mg/kg/day sc, 90 days after transection, mean density ± SEM of Fluoro-gold labeled RGC in 400 μm × 400 μm gridfields)?
**A.** 49 ± 5.3

**Q.** And the “Distal optic nerve shrinkage” value ([5]; 14 days treatment, cross sectional area compared to sham control)?
**A.** 33% shrinkage

**Q.** What about the “Distal optic nerve myclin basic protein Density, loss” value ([5]; 14 days treatment, cross sectional area multiplied by myelin density) of the same compound?
**A.** 47% loss

**Q.** And the “Proximal optic nerve myclin basic protein Density, % recovery” value ([5]; 14 days treatment)?
**A.** 1.6 ± 3.0 SEM % recovery

**Q.** What about the “density of large, medium and small caliber optic nerve axons” value ([5]; 28 day treatment) of the same compound?
**A.** significant increase

**Q.** And the “ON Axon density” value ([5]; 28 days treatment, 90 days after transection, RT97 labeled axons in 200 μm × 200 μm region, mean ± SEM)?
**A.** 1526 ± 120

**Q.** And the “Distal optic nerve, less shrinkage” value ([5]; 28 days treatment, cross sectional area compared to sham control)?
**A.** 56% less shrinkage*

**Q.** And the “Proximal optic nerve myclin basic protein Density, % recovery” value ([5]; 28 days treatment)?
**A.** 70 ± 6.3 SEM % recovery

**Q.** For `C=C(C(=O)N1CCCC[C@H]1C(=O)O)C(C)(C)CC` [G], which “RT97 + RGC axon density 14 days after On transection (% ON axons rescued)” value [1] is on record?
**A.** 34.0% ± 4.8% SEM

**Q.** What about the Ki (FKBP12) of the same compound?
**A.** > 10 µM

**Q.** With `C=C(C(=O)N1CCCC[C@H]1C(N)=O)C(C)(C)CC` [H] as the compound, how does the “RT97 + RGC axon density 14 days after On transection (% ON axons rescued)” value [1] read?
**A.** 30.3% ± 8.0% SEM

**Q.** With `C=C(C(=O)N1CCC[C@H]1C(=O)O)C(C)(C)CC` [L] as the compound, how does the “RT97 + RGC axon density 14 days after On transection (% ON axons rescued)” value [1] read?
**A.** 7.8% ± 3.0% SEM

**Q.** And the Ki (FKBP12)?
**A.** > 7.74 µM

**Q.** And the Clearance [2]?
**A.** 5.2 µL/min

**Q.** For `CCC(C)(C)C(=O)C(=O)N1CCC[C@H]1C(=O)SCCC(c1ccccc1)c1ccccc1` [M], which “RT97 + RGC axon density 14 days after On transection (% ON axons rescued)” value [1] is on record?
**A.** −6.3% ± 3.9% SEM
